Results on 6 compounds are retold here after patent US4341779A, “Esters of amidinepenicillins” (priority 1978, dated 1982).

Where a name gives a salt, the structure may show the parent alone. Read-outs that look alike come from different tables or passages of the source.

Data set [1] is described as follows: LD50 after administration per os in mice. Particulars: mouse, in vivo, po, LD50, mice, per os.
The conditions of data set [2]: rat, in vivo.
A short description of data set [3]: levels of free acid in serum and organs of rats after per os administration of the aminopropyl dihydrochloride. The class given is in vivo.
For a further data set, the system named is arterial pressure. The data set is described as follows: effect onto the arterial pressure of experimental animals. The class given is in vivo. The note with it: on the contrary to Pivmecillinam.
For a further data set, the system named is mice. The data set can be described thus: LD50 after administration per os in mice.
Data set [4] is described as follows: comparative levels of 6-/N,N-1',6'-hexyleneformamidine/-penicillanic acid in blood serum, livers, lungs and kidneys of rats after per os administration (Table 2). Format: in vivo. The text has this: The results of the measurements, expressed in μg/ml are specified in Table 2.
A further data set is described as follows: in vivo. Particulars: mouse, po.

On to `CC(=O)COC(=O)[C@@H]1N2C(=O)[C@@H](N=CN3CCCCCC3)[C@H]2SC1(C)C` [methylacetic ester of 6-/N,N-1', 6'-hexyleneformamidine/-penicillanic acid], for which, in data set [1], the LD50 (commonly the dose expected to kill half of the subjects tested) was > 3000 mg/kg.

Turning to `CC1(C)S[C@@H]2[C@H](N=CN3CCCCCC3)C(=O)N2[C@H]1C(=O)O` [6-/N,N-1', 6'-hexyleneformamidine/-penicillanic acid, reference compound], the level of free acid in blood serum in data set [2] (po, 5 min) was 300 ng/mL; in data set [2] (po, 10 min) it was 900 ng/mL; in data set [2] (po, 0.25 h), 1700 ng/mL; in data set [2] (po, 0.5 h), 1800 ng/mL; in data set [2] (po, 0.75 h), 1900 ng/mL; in data set [2] (po, 1 h) it was 1900 ng/mL. Besides, the level of free acid in blood serum in data set [2] (po, 2 h) was 1600 ng/mL; in data set [2] (po, 3 h), 1300 ng/mL; in data set [2] (po, 4 h), 800 ng/mL; in data set [2] (po, 5 h), 600 ng/mL; in data set [2] (po, 6 h), 500 ng/mL.

On to `CC(=O)COC(=O)[C@@H]1N2C(=O)[C@@H](N=CN3CCC(CCCN)CC3)[C@H]2SC1(C)C` [dihydrochloride of ester methylacetic of 6-{N,N-[3'-(γ-aminopropyl)-1',5'-pentileneformamidine]}-penicillanicacid], for which the “levels of free acid in serum and organs relative to equivalent dose of corresponding free acid” value in data set [3] was “multiply higher”.

As for `CC(=O)COC(=O)[C@@H]1N2C(=O)[C@@H](N=CN3CCCCCC3)[C@H]2SC1(C)C` [Methylacetic ester of 6-N,N-1', 6'-hexyleneformamidine/-peni] [methylacetic ester of 6-/N,N-1', 6'-hexyleneformamidine/-penicillanic acid], the “effect onto the arterial pressure” value with arterial pressure was “no effect”. The “toxicity compared with Pivascillinam” value in the data set on mice (compared with Pivascillinam) is “toxicity lower than that of Pivascillinam”. In addition, the “maximum level in kidneys relative to equivalent dose of Pivmecillinam” value in data set [4] (kidneys) is on record as “three times”. For the same compound, the “maximum level in the liver relative to equivalent dose of Pivmecillinam” value in data set [4] (liver) is reported as “over two times higher”. The “maximum levels in the lungs, ester and Pivmecillinam compared” value in data set [4] (lungs, equivalent doses) is recorded as “approximate ones”. Moreover, in data set [2], the “levels of free acid in the serum, comparison of preparations” value is “highest levels”. In addition, the “maximum serum level relative to equivalent dose of Pivmecillinam” value in data set [2] is recorded as “over two times higher”. Further, the “maximum serum level relative to equivalent dose of corresponding free acid” value in data set [2] is given as “over twenty times higher”. In addition, the level of free acid in blood serum in data set [2] (5 min) was 29300 ng/mL; in data set [2] (10 min) it was 35000 ng/mL; in data set [2] (15 min), 42700 ng/mL; in data set [2] (30 min), 21100 ng/mL; in data set [2] (45 min), 21200 ng/mL; in data set [2] (60 min), 16900 ng/mL. The level of free acid in blood serum in data set [2] (120 min) was 4900 ng/mL; in data set [2] (180 min), 1600 ng/mL; in data set [2] (240 min), 800 ng/mL; in data set [2] (300 min), 600 ng/mL; in data set [2] (360 min) it was 300 ng/mL.

Consider `CC(C)(C)C(=O)OCOC(=O)[C@@H]1N2C(=O)[C@@H](/N=C/N3CCCCCC3)[C@H]2SC1(C)C` [Pivmecillinam, hydrochloride of pivaloyl-oxymethyl ester of 6-/N,N-1',6'-hecylaneformamidine/-penicillanicacid, reference compound], for which the level of free acid in blood serum in data set [2] (5 min) was determined as 6300 ng/mL; in data set [2] (10 min), 12700 ng/mL; in data set [2] (15 min), 15500 ng/mL; in data set [2] (30 min) it was 19200 ng/mL; in data set [2] (45 min) it was 16300 ng/mL; in data set [2] (60 min), 14700 ng/mL. Further, the level of free acid in blood serum was 7900 ng/mL in data set [2] (120 min); 2100 ng/mL in data set [2] (180 min); 1800 ng/mL in data set [2] (240 min); 1500 ng/mL in data set [2] (300 min); 1100 ng/mL in data set [2] (360 min). For the same compound, the LD50 in “in vivo” turned out to be 2600 mg/kg.

Consider `CC(=O)COC(=O)[C@@H]1N2C(=O)[C@@H](N=CN3CCCCCC3)[C@H]2SC1(C)C` [Hydrochloride of methylacetic ester of 6-/N,N1', 6'-hexylene] [hydrochloride of methylacetic ester of 6-/N, N-1', 6'-hexyleneformamidine/-penicillanic acid], for which the “effect onto the arterial pressure” value with arterial pressure is on record as “no effect”. Also, in the data set with mice (mice, per os, listed as hydrochloride of said ester), the LD50 result is on record as “over 5 g/kg of the body weight”. The level of free acid in blood serum in data set [2] (5 min) stood at 12900 ng/mL; in data set [2] (10 min) it was 14300 ng/mL; in data set [2] (15 min), 16400 ng/mL; in data set [2] (30 min), 16100 ng/mL; in data set [2] (45 min) it was 18900 ng/mL; in data set [2] (60 min), 14400 ng/mL. The level of free acid in blood serum is 9100 ng/mL in data set [2] (120 min); 2100 ng/mL in data set [2] (180 min); 1000 ng/mL in data set [2] (240 min); 800 ng/mL in data set [2] (300 min); 100 ng/mL in data set [2] (360 min).
